Read-outs that look alike come from different tables or passages of the source. Where a SMILES comes first, the peptide text is derived from it.
Assays:
[1] = test system: SMAD7, SMAD family member 7; details: cited from earlier work
[2] = test system: BMP2, bone morphogenetic protein 2; details: cited from earlier work
[3] = test system: ASPN, Asporin; details: cited from earlier work
[4] = biological target: PLAU, plasminogen activator, urokinase (Homo sapiens, UniProt P00749); details: cited from earlier work
[5] = test system: SMAD3, SMAD family member 3; details: cited from earlier work
[6] = test system: TGFBR2, transforming growth factor, β receptor II (70/80 kDa); details: cited from earlier work
[7] = test system: TIMP1, metallopeptidase inhibitor 1; details: cited from earlier work
[8] = biological target: T1, PLOD2, procollagen-lysine, 2-oxoglutarate 5-dioxygenase 2 (Homo sapiens, UniProt O00469); details: cited from earlier work
T1 sequence (O00469 26-737): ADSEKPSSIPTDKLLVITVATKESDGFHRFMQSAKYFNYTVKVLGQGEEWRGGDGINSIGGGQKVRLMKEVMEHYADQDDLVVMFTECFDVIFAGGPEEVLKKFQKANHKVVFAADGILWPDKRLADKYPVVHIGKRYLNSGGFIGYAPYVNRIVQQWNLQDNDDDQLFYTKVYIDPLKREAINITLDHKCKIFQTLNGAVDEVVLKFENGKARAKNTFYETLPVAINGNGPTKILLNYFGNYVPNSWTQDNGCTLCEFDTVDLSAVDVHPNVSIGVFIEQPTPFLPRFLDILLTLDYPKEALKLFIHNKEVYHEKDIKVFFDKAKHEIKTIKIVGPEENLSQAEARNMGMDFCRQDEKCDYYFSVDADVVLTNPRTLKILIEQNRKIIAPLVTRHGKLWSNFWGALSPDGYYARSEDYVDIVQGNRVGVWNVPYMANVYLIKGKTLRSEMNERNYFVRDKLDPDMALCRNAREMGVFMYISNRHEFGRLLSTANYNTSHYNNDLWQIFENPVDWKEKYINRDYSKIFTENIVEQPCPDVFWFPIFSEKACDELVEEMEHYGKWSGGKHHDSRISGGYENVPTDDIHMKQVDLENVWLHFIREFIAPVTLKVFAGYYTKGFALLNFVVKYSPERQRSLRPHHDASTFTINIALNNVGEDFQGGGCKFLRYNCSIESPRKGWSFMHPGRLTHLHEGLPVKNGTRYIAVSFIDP

[9] = biological target: T2, LYZ, lysozyme (renal amyloidosis) (Homo sapiens, UniProt P61626); details: cited from earlier work
T2 sequence (P61626 19-148): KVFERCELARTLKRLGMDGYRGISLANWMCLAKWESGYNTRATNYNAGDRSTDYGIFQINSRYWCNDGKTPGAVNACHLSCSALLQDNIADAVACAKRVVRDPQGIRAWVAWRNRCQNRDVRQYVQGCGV

[10] = test system: reconstructed pigmented skin (RPS); assay: Stimulation of pigmentation of reconstructed pigmented skin by treatment with TGF-beta; type: cell-based; details: 200 pg/mL TGF-β1 on equivalent dermis for 3 days, compared with control
Protocol: FIG. 1: This figure illustrates the Reconstructed Pigmented Skin (RPS) treatment protocol using TGF-β. In the diagram, T means “treatment with TGF-β”, in a concentration of 200 pg/mL, with 4 mM of HCl and 1 mg/mL of BSA as the vehicle. The medium was MEM 3F′ with 2% FBS. The equivalent derma were treated for 3 consecutive days. On D0i, the equivalent dermis was seeded with keratinocytes and melanocytes (K+M on the graph) and kept immersed for 7 days. The culture was then emersed for 2 weeks;
The treatment protocol for reconstructed pigmented skin (RPS) with TGF-β is illustrated in FIG. 1. It was as follows:
Equivalent dermis (lattices) containing live fibroblasts in a collagen matrix were attached to the bottom of a Petri dish (D-4) and treated with TGF-β1 (T on FIG. 1) in a concentration of 200 pg/mL (vehicle: 4 mM of HCl and 1 mg/mL of BSA; medium: MEM 3F′ with 2% FBS), for 3 days (D-3; D-2 and D-1 in FIG. 1). Next, the pigmented epidermis was reconstructed on the equivalent dermis by seeding keratinocytes and melanocytes (D0). The culture was kept immersed for 1 week and emersed for 2 weeks (FIG. 1).
Samples were removed to analyse the pigmentation: • integration and morphology of melanocytes were observed after Dopa reaction on detached epidermis; • colorimetric luminance measurement provided information regarding the degree of clarity of the samples (the lower the L*, the darker the samples); • the presence of melanin was observed after Fontana Masson staining skin sections; and • the quantity of melanin present in the epidermis was measured by image analysis.

[11] = test system: MATN2, matrilin 2; details: cited from earlier work

Molecule: O=CC(=O)C[C@H](O)[C@H](O)CO [3-deoxyglucosone]
- Sense of modulation: SMAD7 expression [1]: Increases

Molecule: Cc1cc(SCc2sc(-c3ccc(C(F)(F)F)c(F)c3)nc2C)ccc1OCC(=O)O [GW0742]
- Sense of modulation: BMP2 expression [2]: Reduces exp.
- Sense of modulation: BMP2 expression ([2]; listed as GW-0742): reduces

Molecule: N#Cc1ccc(C(c2ccc(C#N)cc2)n2cncn2)cc1 [Letrozole]
- Sense of modulation: ASPN expression [3]: Increases

Molecule: CC(=O)N[C@@H](CO)C(=O)N[C@@H](CC(=O)O)C(=O)N[C@@H](CCCCN)C(=O)N1CCC[C@H]1C(=O)O [N-acetyl-seryl-aspartyl-lysyl-proline] (Ac-SDKP-OH)
- Sense of modulation: SMAD7 expression [1]: Increases

Molecule: CC(C)=CCC[C@](C)(O[C@@H]1O[C@H](CO)[C@@H](O)[C@H](O)[C@H]1O)[C@H]1CC[C@]2(C)[C@@H]1[C@H](O)C[C@@H]1[C@@]3(C)CC[C@H](O)C(C)(C)[C@@H]3[C@@H](O[C@@H]3O[C@H](CO)[C@@H](O)[C@H](O)[C@H]3O[C@@H]3OC[C@@H](O)[C@H](O)[C@H]3O)C[C@]12C [Notoginsenoside R1]
- Sense of modulation: PLAU expression [4]: Increases

Molecule: O=C1CCC[C@@H]2[C@H]3CCC[N+]4([O-])CCC[C@@H](CN12)[C@@H]34 (some centres unmarked) [Oxymatrine]
- modulation of SMAD3 ('reduces SMAD3', level not given) [5]: reduces
- Sense of modulation: SMAD7 expression [1]: Increases

Molecule: N=C(N)c1ccc(N)cc1 [P-aminobenzamidine]
- Sense of modulation: PLAU activity [4]: Reduces activity
- Sense of modulation: PLAU activity ([4]; listed as p-aminobenzamidine): reduces

Molecule: NC(=O)c1ccc(-c2nc(-c3ccc4c(c3)OCO4)c(-c3ccccn3)[nH]2)cc1 [SB-431542]
- Sense of modulation: SMAD3 expression [5]: Reduces
- modulation of SMAD3 ('reduces SMAD3', level not given) [5]: reduces

Molecule: O=C(/C=C/c1ccc(O)c2c1[C@H](C(=O)O[C@H](Cc1ccc(O)c(O)c1)C(=O)O)[C@@H](c1ccc(O)c(O)c1)O2)O[C@H](Cc1ccc(O)c(O)c1)C(=O)O [Salvianolic Acid B (Sal B), Salvianolic Acid B]
- Sense of modulation: TGFBR2 expression [6]: reduces
- Sense of modulation: TGFBR2 expression ([6]; listed as Salvianolic acid B (SA-B)): Reduces
- Sense of modulation: SMAD3 expression [5]: Reduces
- modulation of SMAD3 ('reduces SMAD3', level not given) [5]: reduces

Molecule: O=C([O-])Cc1ccccc1.[Na+] [Sodium phenylacetate (NaPA), Sodium phenylacetate]
- Sense of modulation: PLAU expression [4]: Reduces
- Sense of modulation: PLAU expression ([4]; listed as NaPA): reduces

Molecule: COC(=O)[C@@H](c1ccccc1Cl)N1CCc2sccc2C1 [Thienopyridine SR 25989]
- Sense of modulation: PLAU expression [4]: Increases

Molecule: CCCCC(=O)N(Cc1ccc(-c2ccccc2-c2nnn[nH]2)cc1)[C@H](C(=O)O)C(C)C [Valsartan]
- Sense of modulation: TIMP1 expression [7]: Reduces
- Sense of modulation: TIMP1 expression ([7]; listed as valsartan): reduces

Molecule: CC(C)(C#N)c1cc(Cn2cncn2)cc(C(C)(C)C#N)c1 [anastrozole]
- Sense of modulation: ASPN expression [3]: Increases

Molecule: N#CCCN [beta-aminopropionitrile (bAPN), beta-aminopropionitrile]
- Sense of modulation: PLOD2 expression [8]: Reduces

Molecule: PACAP38: form of pituitary adenylate cyclase-activating polypeptide listed beneath PACAP
- Sense of modulation: LYZ expression [9]: Increases

Molecule: TGF-β1: Transforming growth factor beta 1 used to treat equivalent dermis at 200 pg/mL
- integration and morphology of melanocytes (Dopa reaction on detached epidermis) [10]: still present in the epidermis and retain the correct dendritic morphology
- melanin content (Fontana Masson stained sections, quantification by image analysis) [10]: visibly increased
- melanin deposits in the epidermis [10]: higher
- luminance of the samples (L*) ([10]; lower L* = darker): reduced

Molecule: Vitamin K2 menaquinone
- Sense of modulation: MATN2 expression [11]: Increases

Reference: patent US20150307940A1, “MOLECULAR SIGNATURE OF CUTANEOUS PIGMENTARY SPOTS, ASSOCIATED WITH THE EXTRACELLULAR MATRIX” (L'OREAL, priority 2011, published 2015)
